Test results from PMC12903969, “Discovery of a Novel and Potent Kir4.1 Inhibitor as a Safe and Rapid‐Onset Antidepressant Agent in Mice” (Advanced Science, 2025).
“And” between values parts separate entries of the source, which are not always exact repeats. Identical values can stand only once.

Key:
C57BL/6J mice = test: Seizure threshold measurement in maximal electroshock (MES); assay type: in vivo; parameters: seizure incidence, Single dose-MES / seizure incidence, Multiple dose-MES: unit not given here; conditions: for seizure incidence, Multiple dose-MES / seizure incidence, Single dose-MES: JX3212 10 mpk
Procedure: Male C57BL/6J mice underwent corneal electroshock stimulation using an Orchid Scientifics EC‐02 stimulator with a fixed pulse duration of 0.2 s. The current intensity was titrated in a stepwise manner (0.1 mA increments) based on real‐time behavioral responses during serial testing. Seizure severity was quantified using the hindlimb tonic extension score, with rigorous blinding applied to the vehicle‐ and JX3212‐treated groups. Subsequently, CS50 values were determined.

mice [1] = test: Rotarod test (RT); assay type: in vivo; conditions: chronic 10 mg kg−1 per day
Procedure: The rotarod test was designed to evaluate the coordination and motor performance of rodents. The speed and time were set for the rod rotators. All experimental mice were allowed to adapt to a lower speed (5 rpm). For the formal test, the mice were placed on a rod spinning at 20 rpm, and the duration that the mice were able to hold on the rod at this speed was recorded. The maximum test duration was 20 min.

C57BL/6J mice after CSDS = test: CSDS model, forced swim test; assay type: in vivo; conditions: single i.p. injection 10 mg kg−1
Procedure: The 10‐day CSDS paradigm was conducted as previously described.^[ [24] ^] CD‐1 aggressive mice were singly housed in defeat cages on one side of a perforated plexiglass partition 24 h before the defeat session. Experimental C57BL/6J mice were placed daily on the resident cage side of a novel CD‐1 aggressor that rapidly initiated a physical attack on the intruder. After 10‐min of social defeat, the intruder mice were housed on the opposite side of the partition within a shared home cage, experiencing further sensory contact for the subsequent 24 h. In contrast, control mice were maintained in their home cages and allowed to explore the empty defeat cages for 10 min each day.
Mice were placed individually in a transparent glass cylinder (25 cm high, 10 cm wide) filled with water (temperature 23–25 °C) to a depth of 10 cm, and prevented from making contact with the bottom. Mice behaviors were videotaped from each side. The observation period lasted for 6 min, with the final 4 min used to measure immobile behavior, which was processed using the AnyMaze Tracking System (Stoelting).

mice [2] = test: 21-day chronic administration: body weight, organ weight, serum biochemistry
mice [3] = test: Treadmill test (TT); assay type: in vivo; conditions: chronic 10 mg kg−1 per day
Procedure: This test was designed to quantify locomotor endurance in rodents. The time (300 s) and speed (maximum: 30 rpm) parameters for the treadmill were set using a digital panel and the mice were placed in lanes. Gentle electrical probes (0.3 mA) served as motivational stimuli. Total distance traveled was automatically recorded using rotary encoder integration.

Kir4.2 = molecular target: T1, Kir4.2 (Homo sapiens, UniProt Q99712); test: Whole-cell patch clamp, Kir4.2; assay type: cell-based
T1 construct: host or cells: CHO-K1
T1 sequence (Q99712 1-375): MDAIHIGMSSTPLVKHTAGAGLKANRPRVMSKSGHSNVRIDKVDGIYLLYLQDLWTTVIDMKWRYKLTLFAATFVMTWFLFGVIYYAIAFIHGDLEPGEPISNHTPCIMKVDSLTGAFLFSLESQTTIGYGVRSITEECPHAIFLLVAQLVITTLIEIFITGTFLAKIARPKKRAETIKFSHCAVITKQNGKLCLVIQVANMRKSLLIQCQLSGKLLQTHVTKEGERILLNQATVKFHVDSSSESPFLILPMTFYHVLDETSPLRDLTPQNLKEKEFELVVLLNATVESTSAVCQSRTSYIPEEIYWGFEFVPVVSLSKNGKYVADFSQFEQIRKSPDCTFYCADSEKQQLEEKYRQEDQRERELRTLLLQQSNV
Procedure: Plasmids encoding WT human potassium channels Kir1.1, Kir2.1, Kir2.2, Kir4.1, and Kir4.2 were obtained from the Beijing Genomics Institute. All point mutations were constructed using the QuickChange II Site‐Directed Mutagenesis Kit (Stratagene) and subsequently verified by sequencing.
CHO‐K1 cells were maintained in DMEM/F12 growth medium containing 10% fetal bovine serum. Plasmids encoding the target genes (3600 ng) and enhanced green fluorescent protein (400 ng) were cotransfected into cells using Lipofectamine 2000 (Invitrogen) in accordance with the manufacturer's instructions. Cells were seeded onto poly‐d‐lysine (PDL)‐coated glass coverslips 1 h prior to electrophysiological recordings. All cells were cultured under standard conditions of 5% CO2 at 37 °C.
Whole‐cell patch‐clamp recordings were obtained either in transiently transfected CHO‐K1 cells or in primary cultured astrocytes at room temperature using standard patch‐clamp techniques with an Axopatch‐700B amplifier (Axon Instruments). The signals were filtered at 2 kHz and sampled at 20 kHz using the Digidata 1440A interface (Axon Instruments). The resistance of borosilicate glass pipettes was typically 2–4 MΩ when filled with the internal solution. Drug application was facilitated using a BPS perfusion system (ALA Scientific Instruments). Macroscopic currents generated by expressed potassium channels were recorded under the voltage‐clamp conditions with an internal pipette solution composed of (in mM): 140 KCl, 5 NaCl, 1 CaCl2, 1 MgCl2, 10 HEPES, and 10 EGTA, pH 7.2 adjusted with KOH. The external solution contained (in mM): 140 NaCl, 5 KCl, 2 CaCl2, 1 MgCl2, 10 glucose, and 10 HEPES, pH 7.4 adjusted with NaOH. Currents were elicited with a hyperpolarized voltage at −120 mV from the holding potential of −80 mV, followed by a ramp voltage depolarizing to +50 mV. Astrocytic resting membrane potentials were recorded under current‐clamp conditions (I = 0 pA) using standard internal and external solutions, determined immediately after achieving whole‐cell mode.

[4] = 10 mg/kg, 21-day chronic administration, individual animals
[5] = serum, 10 mg/kg, 21-day chronic administration, individual animals

## c1ccc2c(c1)oc1ccc(Nc3ccnc(NCCCN4CCOCC4)n3)cc12 [JX3212, N^4-(dibenzo[b,d]furan-2-yl)-N^2-(3-morpholinopropyl)pyrimidine-2,4-diamine]
C57BL/6J mice; 10 mg kg−1, single or 14-day consecutive administration
  seizure susceptibility, maximal electronic seizure model (in words): did not alter seizure susceptibility
C57BL/6J mice; stimulus 0.45 mA
  seizure incidence, Multiple dose-MES: 0
  seizure incidence, Single dose-MES: 0
C57BL/6J mice; stimulus 0.55 mA
  seizure incidence, Multiple dose-MES: 12.5
  seizure incidence, Single dose-MES: 37.5
C57BL/6J mice; stimulus 0.65 mA
  seizure incidence, Multiple dose-MES: 50
  seizure incidence, Single dose-MES: 50
C57BL/6J mice; stimulus 0.75 mA
  seizure incidence, Multiple dose-MES: 87.5
  seizure incidence, Single dose-MES: 75
Mice [1]
  rotarod falling latency vs vehicle (in words): showed no significant effects
C57BL/6J mice after CSDS
  CSDS: immobility in FST (in words): reduced immobility duration
Mice [2]; 10 mg kg−1 per day, vs vehicle
  body weight during 21-day chronic administration (in words): no evident effect on body weight
Mice [2]; [4]
  Kidney/Body Weight Ratio (%): 1.122% and 1.187% and 1.1008% and 0.9864% and 1.07% (2×) and 1.145% and 1.0748% and 1.06% and 1.171%
  Liver/Body Weight Ratio (%): 5.072% and 4.477% and 4.872% and 4.814% and 4.623% and 5.084% and 4.1308% and 4.637% and 4.391% and 4.945%
Mice [2]; 10 mg/kg, day 7, individual animals
  Body weight: 24.2 (3×) and 24 and 25.6 and 25.4 and 23.8
Mice [2]; 10 mg/kg, day 8, individual animals
  Body weight: 24 and 25.9 and 24.2 (2×) and 24.4 and 25 and 26
Mice [2]; 10 mg/kg, day 9, individual animals
  Body weight: 25 and 24 and 26.3 and 25.6 (2×) and 24.7 and 24.1
Mice [2]; 10 mg/kg, day 10, individual animals
  Body weight: 26.3 and 25.4 (2×) and 24.1 and 25 and 25.5
Mice [2]; 21-day administration
  liver-to-body and kidney-to-body weight ratio (in words): no appreciable differences
  serum aspartate aminotransferase and urea levels (in words): comparable
  serum creatinine level (in words): marked decreases in creatinine levels
Mice [2]; [5]
  ALT: 36 and 35 and 41 and 32 and 37 and 33 and 31 and 29
  AST: 167 and 207 and 243 and 139 and 147 and 172 and 200 and 131 and 133 and 155
  Cr: 19 and 18 and 20 and 21 and 22 and 23
  Urea: 5.59 and 3.68 and 6 and 5.19 and 5.88 and 6.46 and 5.16 and 5.73 and 5.29 and 5.71
Mice [3]
  treadmill running distance vs vehicle (in words): showed no significant effects
Kir4.2; 3 µM, mean ± SEM
  Kir4.2 blockade: 86.57 ± 10.51%
Kir4.2; JX3212 3 µM (Fig 2A)
  Kir isoforms: Kir4.2 inhibition, single recordings: 93.8526 and 74.5275
Kir4.2; JX3212 3 µM (Fig 2A), read-out: Kir isoforms: Kir4.2 inhibition, single recordings
  inhibition at 3 µM: 91.3%
